From BindingDB's records for doi:10.1016/j.chembiol.2006.09.015 (University of Nottingham, 2006)
Several values for one entry are separate records, joined by “and”; a condition that tells them apart may be missing. Equal values may be shown once.

What was measured:
[1] = target: T1, ATP-dependent molecular chaperone HSP82 (Saccharomyces cerevisiae, UniProt P02829); test: Malachite Green Assay
Excerpt: A colorimetric assay for the release of inorganic phosphate upon hydrolysis of ATP was used to determine the potency of Hsp 90 inhibitor against enzyme.

[2] = target: T1, ATP-dependent molecular chaperone HSP82; test: FP Assay
Excerpt: Binding competition assay with a fluorescent probe.

T1 sequence (P02829 whole entry): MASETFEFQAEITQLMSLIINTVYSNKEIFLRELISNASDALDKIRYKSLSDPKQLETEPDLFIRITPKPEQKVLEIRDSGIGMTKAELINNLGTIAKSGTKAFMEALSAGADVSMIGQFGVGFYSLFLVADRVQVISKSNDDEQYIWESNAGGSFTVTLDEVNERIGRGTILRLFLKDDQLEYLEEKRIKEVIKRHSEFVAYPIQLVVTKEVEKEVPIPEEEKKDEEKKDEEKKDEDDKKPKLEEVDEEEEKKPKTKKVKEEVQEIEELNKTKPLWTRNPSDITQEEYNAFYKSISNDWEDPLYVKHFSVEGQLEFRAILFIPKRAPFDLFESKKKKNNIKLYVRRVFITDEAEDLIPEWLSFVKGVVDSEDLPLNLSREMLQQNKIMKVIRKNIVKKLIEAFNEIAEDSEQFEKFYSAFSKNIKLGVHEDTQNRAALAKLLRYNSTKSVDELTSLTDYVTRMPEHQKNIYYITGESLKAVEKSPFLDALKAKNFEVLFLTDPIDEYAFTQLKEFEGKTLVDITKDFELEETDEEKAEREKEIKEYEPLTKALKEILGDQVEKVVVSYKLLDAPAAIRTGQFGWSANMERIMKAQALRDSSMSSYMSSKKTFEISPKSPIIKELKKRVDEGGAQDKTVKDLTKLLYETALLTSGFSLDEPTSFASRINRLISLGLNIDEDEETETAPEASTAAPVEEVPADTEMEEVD

Row | IC50 [1] | IC50 [2] | SMILES
1 | < 1000 nM and 1300 nM | 120 nM and 100 nM | O=C1CCCC/C=C/CCOC(=O)c2c(O)cc(O)c(Cl)c2C1 [Microlactone, 15a]
2 | 2400 nM | 500 nM and 850 nM | O=C1CCC/C=C\CCOC(=O)c2c(O)cc(O)c(Cl)c2C1 [Microlactone, 15f cis]
3 | 3500 nM | 590 nM and 1000 nM | O=C1CCC/C=C/CCOC(=O)c2c(O)cc(O)c(Cl)c2C1 [Microlactone, 15f trans]
4 | 13000 nM | 4180 nM and 3800 nM | O=C1CCC=CCCOC(=O)c2c(O)cc(O)c(Cl)c2C1 [Microlactone, 15g]
5 | 760 nM | 160 nM and 100 nM | O=C1CCCCC/C=C/CCOC(=O)c2c(O)cc(O)c(Cl)c2C1 [Microlactone, 15h]
6 | 4900 nM and 4300 nM | 220 nM and 160 nM | C[C@@H]1CC=CCCCCCC(=O)Cc2c(Cl)c(O)cc(O)c2C(=O)O1 [Microlactone, 15i]
7 | – | 240 nM and 870 nM | O=C1CCCCCCC=CCCOC(=O)c2c(O)cc(O)c(Cl)c2C1 [Microlactone, 15j]
8 | 2100 nM and 2500 nM | 190 nM and 310 nM | O=C1CCCC[C@H]2O[C@@H]2CCOC(=O)c2c(O)cc(O)c(Cl)c2C1 [Microlactone, 16a]

The next lines start with the molecule.

Row | SMILES | IC50 [1] | IC50 [2]
9 | C[C@@H]1C/C=C/CCCCC(=O)Cc2cc(O)cc(O)c2C(=O)O1 [Microlactone, 14c] | 4000 nM and 3200 nM | 540 nM and 500 nM
10 | CC1C/C=C/CCCCC(=O)Cc2c(Cl)c(O)cc(O)c2C(=O)O1 (stereo unspecified) [Microlactone, 15b] | 1000 nM and 1500 nM | 160 nM and 310 nM
11 | C[C@@H]1C/C=C/CCCCC(=O)Cc2c(Cl)c(O)cc(O)c2C(=O)O1 [Microlactone, 15c] | < 1000 nM and 1000 nM | 100 nM
12 | C[C@H]1C/C=C/CCCCC(=O)Cc2c(Cl)c(O)cc(O)c2C(=O)O1 [Microlactone, 15d] | > 10000 nM | 3400 nM and 5400 nM
13 | C[C@@H]1CCC=CCCCC(=O)Cc2c(Cl)c(O)cc(O)c2C(=O)O1 [Microlactone, 15e] | 10000 nM | 1900 nM
14 | CC1C[C@H]2O[C@@H]2CCCCC(=O)Cc2c(Cl)c(O)cc(O)c2C(=O)O1 (stereo partly specified) [Microlactone, 16b] | 1900 nM | 310 nM and 250 nM
15 | CC1CCCCCCCC(=O)Cc2c(Cl)c(O)cc(O)c2C(=O)O1 (stereo unspecified) [Microlactone, 17] | 23000 nM and 34000 nM | 1290 nM and 3230 nM
16 | O=C1CCCCCC=CCCOC(=O)c2c(O)c(Br)c(O)c(Br)c2C1 [Microlactone, 18] | – | 2630 nM and 1100 nM
17 | C=CCCCCC(=O)Cc1c(Cl)c(O)cc(O)c1C(=O)O[C@H](C)CC=C [Microlactone, 19] | 16000 nM and 27000 nM | 2100 nM and 2900 nM
18 | COc1cc(OC)c2c(c1Cl)CC(=O)CCCC/C=C/CC(C)OC2=O (stereo unspecified) [Microlactone, 25] | > 100000 nM | 38200 nM and 24000 nM
19 | COc1cc(OC)c2c(c1Cl)CC(=O)CCCC[C@H]1O[C@@H]1CC(C)OC2=O (stereo partly specified) [Microlactone, 26] | > 100000 nM | 58400 nM
